Data: paper PMC11882969 (Nature Communications, 2025)
Values joined by “and” are separate entries in the source; they are usually repeats but may differ in a detail not shown here. Equal entries are not always repeated. Where two headings read alike, the source gives them in different places.

Columns and labels:
CB1 (rCB1) = CB1 (rCB1) (Rattus norvegicus, UniProt P20272); assay: Radioligand competition binding, [3H]-CP-55,940, rat brain membranes; conditions: for radioligand binding, competition curve point (normalized): log[drug], replicate columns
hCB1 = hCB1 (Homo sapiens, UniProt P21554); assay: Lance Ultra cAMP accumulation assay, CHO cells; type: cell-based; parameters: expressed in transfected cells; conditions: for normalised cAMP response, concentration-response (Figure2f), replicate values: log[Compound;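 for all read-outs here: human CB1R stably expressed in CHO cells, ligands co-incubated with forskolin at room temperature, read-out is lowering of forskolin-stimulated cAMP accumulation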
Chain of hCB1 (P21554 whole entry): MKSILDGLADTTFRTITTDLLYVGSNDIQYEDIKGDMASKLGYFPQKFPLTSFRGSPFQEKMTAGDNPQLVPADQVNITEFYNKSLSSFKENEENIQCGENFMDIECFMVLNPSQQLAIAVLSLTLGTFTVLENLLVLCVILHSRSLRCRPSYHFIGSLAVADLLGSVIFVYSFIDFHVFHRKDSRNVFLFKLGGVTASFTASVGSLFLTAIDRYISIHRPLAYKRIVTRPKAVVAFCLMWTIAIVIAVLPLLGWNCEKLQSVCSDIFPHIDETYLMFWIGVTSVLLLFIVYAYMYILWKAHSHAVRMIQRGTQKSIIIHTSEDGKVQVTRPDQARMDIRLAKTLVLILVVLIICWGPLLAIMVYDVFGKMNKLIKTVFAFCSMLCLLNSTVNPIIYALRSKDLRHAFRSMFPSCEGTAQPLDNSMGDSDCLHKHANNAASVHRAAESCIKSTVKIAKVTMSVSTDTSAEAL
Method: The inhibition of forskolin-stimulated cAMP accumulation assays was carried out using PerkinElmer’s Lance Ultra cAMP kit following the manufacturer’s protocol. In brief, CHO cells stably expressing human CB1R (provided by the lab of Laura Bohn) were harvested by incubation with Versene (ThermoFisher Scientific, Waltham, MA) for 10 min, washed once with Hank’s Balanced Salt Solution, and resuspended in stimulation buffer at ~200 cells/μL density. The ligands at eight different concentrations (0.001-10,000 nM) in stimulation buffer (5 μL) containing forskolin (2 μM final concentration) were added to a 384-well plate followed by the cell suspension (5 μL; ~1000 cells/well). The plate was incubated for 30 min at room temperature. Eu-cAMP tracer (5 μL) and Ulight-anti-cAMP (5 μL) working solutions were then added to each well, and the plate was incubated at room temperature for an additional 60 min. Results were measured on a Perkin-Elmer EnVision plate reader. The EC50 values were determined by nonlinear regression analysis using Graphpad Prism 9 and are expressed as the mean of three experiments, each performed in triplicate.

Chain of CB1 (rCB1) (P20272 whole entry): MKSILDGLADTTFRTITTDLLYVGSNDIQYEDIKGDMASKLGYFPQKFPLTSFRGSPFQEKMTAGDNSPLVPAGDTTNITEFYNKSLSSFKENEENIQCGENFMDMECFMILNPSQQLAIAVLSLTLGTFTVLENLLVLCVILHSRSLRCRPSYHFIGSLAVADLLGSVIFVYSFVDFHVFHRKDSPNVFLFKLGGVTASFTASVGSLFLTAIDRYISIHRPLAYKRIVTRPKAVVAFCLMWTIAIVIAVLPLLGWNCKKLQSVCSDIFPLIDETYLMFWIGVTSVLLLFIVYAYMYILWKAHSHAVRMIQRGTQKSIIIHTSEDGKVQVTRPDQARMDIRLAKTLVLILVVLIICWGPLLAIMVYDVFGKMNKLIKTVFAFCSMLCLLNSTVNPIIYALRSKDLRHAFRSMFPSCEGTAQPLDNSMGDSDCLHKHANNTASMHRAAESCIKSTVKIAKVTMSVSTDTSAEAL

Question: How did the Ki (CB1 (rCB1)) turn out when `Cc1cc(C(=O)NC(C)(c2ccco2)c2ccco2)nn1-c1cccc(C(F)(F)F)c1` [‘4936] was run?
Answer: Its Ki is 7 nM.

Question: What about the “LLE (lipophilic ligand efficiency)” value (CB1 (rCB1); LLE = pIC50 − clogP) of the same compound?
Answer: Its value is 3.2.

Question: What about the “LE (ligand efficiency)” value (CB1 (rCB1); from rCB1 affinity) of the same compound?
Answer: The value was 0.37.

Question: And the “pKi [95% CI]” value (CB1 (rCB1); rCB1)?
Answer: The value was 8.1 [7.9 – 8.4].

Question: What about the “radioligand binding, competition curve point (normalized)” value (from here on “radioligand binding … (normalized)”) (CB1 (rCB1); rCB1, M = -5.643) of the same compound?
Answer: Its value is 23.3333 and 16.4729.

Question: And the “radioligand binding … (normalized)” value (CB1 (rCB1); rCB1, M = -6.357)?
Answer: The value was 15.1515 and 4.845.

Question: And the “radioligand binding … (normalized)” value (CB1 (rCB1); rCB1, M = -7.07)?
Answer: Its value is 14.5455 and 12.7907.

Question: And the “radioligand binding … (normalized)” value (CB1 (rCB1); rCB1, M = -7.783)?
Answer: Its value is 50 and 46.3178.

Question: And the “radioligand binding … (normalized)” value (CB1 (rCB1); rCB1, M = -8.496)?
Answer: Its value is 103.182 and 83.9147.

Question: And the “radioligand binding … (normalized)” value (CB1 (rCB1); rCB1, M = -9.21)?
Answer: Its value is 89.2442.

Question: And the “radioligand binding … (normalized)” value (CB1 (rCB1); rCB1, M = -9.923)?
Answer: The value was 99.0909 and 86.6279.

Question: What about the “radioligand binding … (normalized)” value (CB1 (rCB1); rCB1, M = -10.636) of the same compound?
Answer: The value was 105.758 and 87.9845.

Question: And the “fold less potent than CP-55,940” value (CB1 (rCB1); rCB1 binding)?
Answer: The value was 2.5 fold.

Question: What about the Ki (CB1 (rCB1); read-out: Ki [95% CI], rCB1, [3H]-CP-55,940) of the same compound?
Answer: The Ki was 7.5 nM.

Question: What about the “fold improvement in CB1R affinity” value (CB1 (rCB1); vs parent hit or analog without the change) of the same compound?
Answer: Its value is “approximately 6 fold”.

Question: And the EC50 (hCB1)?
Answer: The EC50 was 4.79 nM.

Question: And the Emax (hCB1; CHO)?
Answer: The Emax was 65%.

Question: What about the “agonism, inhibition of forskolin-stimulated cAMP” value (hCB1; hCB1-expressing cells, in words) of the same compound?
Answer: Its value is “agonists”.

Question: What about the “normalised cAMP response, concentration-response (Figure2f), replicate values” (“normalised cAMP response” for short) (hCB1; M] -5) of the same compound?
Answer: The value was 23.9901 and 17.3183 and 31.2071.

Question: What about the “normalised cAMP response” value (hCB1; M] -6) of the same compound?
Answer: The value was 35.8451 and 34.6268 and 48.1963.

Question: What about the “normalised cAMP response” value (hCB1; M] -7) of the same compound?
Answer: The value was 34.8754 and 40.2051 and 42.4315.

Question: And the “normalised cAMP response” value (hCB1; M] -8)?
Answer: The value was 49.8775 and 50.0992 and 49.4868.

Question: And the “normalised cAMP response” value (hCB1; M] -9)?
Answer: The value was 89.3609 and 84.5102 and 106.905.

Question: What about the “normalised cAMP response” value (hCB1; M] -10) of the same compound?
Answer: The value was 90.3788 and 99.666 and 104.111.

Question: What about the “normalised cAMP response” value (hCB1; M] -11) of the same compound?
Answer: The value was 85.7953 and 85.5262 and 99.9371.

Question: And the “normalised cAMP response” value (hCB1; M] -12)?
Answer: Its value is 103.02 and 108.188 and 110.316.
